According to US11478526B2, “Methods of reducing neuroinflammation or toxicity induced by amyloid beta (abeta) using glucocorticoid induced leucine zipper (GILZ) analog peptides” (INDIANA UNIVERSITY RESEARCH AND TECHNOLOGY CORPORATION, priority 2016, dated 2022):

Test system: SK-N-SH cells
Assay: MTT viability with dexamethasone
Type: cell-based, human
Conditions: 24 h
Method: Preliminary results: The expression of GILZ in human neuroblastoma cells was evaluated. […] After resting, the cells were cultured with increasing concentrations of dexamethasone (Dex: 0-10 μM) for 24 h and viability was determined by the MTT assay by measuring the absorbance of the intracellular formazon resulting from the reduction of the yellow tetrazolium MTT by the cell metabolic activity. Absorbance of vehicle treated cells was taken as 100% viable. GILZ expression was measured in protein extracts from separate SK-N-SH cultures by Western blot analysis using GILZ mAb [Santa Cruz Biotechnology, Dallas, Tex.]. Total RNA isolated from similar SK-N-SH cultures was reverse transcribed and the GILZ mRNA was amplified using the SYBR green qPCR mix (SA Biosciences, Fredrick, Md.) on the ABI Prism 7000 system (Applied Biosystem, Calif.).

C[C@@H]1C[C@H]2[C@@H]3CCC4=CC(=O)C=C[C@]4(C)[C@@]3(F)[C@@H](O)C[C@]2(C)[C@@]1(O)C(=O)CO [DEX, dexamethasone]
toxicity (MTT viability) (1 μM): not toxic | reduction of viability (10 μM): 25%
